Reference: patent publication US9006454B2, “Dihydroorotate dehydrogenase inhibitors” (Merck Serono S.A., priority 2009, dated 2015)

Assays:
[1] = target: DHODH (Homo sapiens (Human), UniProt Q02127); test: DHODH activity assay (coupled enzyme assay, DCIP reduction, absorbance at 610 nm); assay type: biochemical; conditions: for inhibition at 10 µM: compound at 10 uM, read-out: inh @ 10 uM hDHODH (%)
[2] = system: Jurkat cells; test: Measurement of cell proliferation (Jurkat cell), XTT assay; assay type: cell-based; conditions: Homo sapiens, Jurkat; for inhibition at 1 µM: compound at 1 uM, read-out: % inh Jurkat_cells @ 1 uM (%); for EC50: 72 h, XTT cell viability
Summary of the method: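 Jurkat T cells, 100,000 per well in RPMI with 10% FBS, exposed 72 h at 37 °C to serial compound dilutions (typically from 10 μM, half-log steps, triplicate) at 0.25–0.5% DMSO. Viability by XTT/PMS, A465 after 2 h, media background subtracted, untreated cells as 100%; EC50 from curve fit.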

DHODH, sequence (Q02127 whole entry): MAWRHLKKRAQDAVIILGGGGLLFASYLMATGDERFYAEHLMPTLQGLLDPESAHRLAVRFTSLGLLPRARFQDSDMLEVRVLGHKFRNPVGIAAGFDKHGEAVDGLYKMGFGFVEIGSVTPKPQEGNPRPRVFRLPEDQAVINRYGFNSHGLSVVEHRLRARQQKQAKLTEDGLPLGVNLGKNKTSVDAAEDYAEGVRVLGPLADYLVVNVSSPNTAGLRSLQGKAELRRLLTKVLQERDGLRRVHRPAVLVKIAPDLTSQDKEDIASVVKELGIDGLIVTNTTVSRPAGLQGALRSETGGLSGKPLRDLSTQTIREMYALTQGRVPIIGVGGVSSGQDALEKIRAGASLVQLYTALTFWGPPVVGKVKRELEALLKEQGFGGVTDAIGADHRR

Compound | inhibition at 10 µM [1] | inhibition at 1 µM [2] | IC50 [1] | EC50 [2]
Cc1cc(C(=O)O)c2nc(C#Cc3ccc(OCc4ccccc4)cc3)[nH]c2c1 [I166] | 53.2% | 13.4% |  | 
O=C(O)c1cccc2[nH]c(-c3ccc(-c4ccsc4)cc3)nc12 [I22] | 57.3% | 15.3% |  | 
O=C(O)c1cccc2nc(-c3ccc(-c4ccc(F)cc4F)cc3)[nH]c12 [I32] | 69.6% | 21.1% |  | 
Cc1cc(C(=O)O)c2nc(-c3c(F)c(F)c(-c4cccnc4)c(F)c3F)[nH]c2c1 [I141] | 92.5% | 86.9% | 32 nM | 2600 nM
Cc1cc(C(=O)O)c2nc(-c3c(F)cc(-c4ccccc4)cc3F)[nH]c2c1 [I48] | 100% | 88.1% | 177 nM | 393 nM
Cc1cc(C(=O)O)c2nc(-c3ccc(-c4cccnc4)cc3)[nH]c2c1 [I59] | 99.2% | 73.5% | 407 nM | 450 nM
O=C(O)c1cccc2[nH]c(-c3ccc(-c4ccc(OC(F)(F)F)cc4)cc3)nc12 [I16] | 39.9% | 18% |  | 
Cc1cc(C(=O)O)c2[nH]c(-c3ccc(Oc4ccc(C#N)cc4)cc3)nc2c1 [I78, 2-[4-(4-Cyano-phenoxy)-phenyl]-6-methyl-3H-benzoimidazole-4-carboxylic acid] | 58.5% | 22.2% |  | 
Cc1cc(C(=O)O)c2nc(-c3ccc(-c4ccc(NC(=O)C5CCNCC5)cc4)cc3)[nH]c2c1 [I90] | 78.8% | 44.5% | 3690 nM | 
Cc1cc(C(=O)O)c2nc(-c3ccc(-c4ccc(CO)cc4)cc3)[nH]c2c1 [I170] | 84% | 57% |  | 
O=C(O)c1cccc2[nH]c(-c3ccc(-c4cccc(OCc5ccccc5)c4)cc3)nc12 [I118] | 84% | 41.4% | 1300 nM | 
O=C(O)c1cccc2[nH]c(-c3c(F)c(F)c(-c4ccccc4)c(F)c3F)nc12 [I21] | 97.3% | 92.4% | 38 nM | 238 nM
CONC(=O)c1cc(C)cc2nc(-c3c(F)c(F)c(-c4ccccc4)c(F)c3F)[nH]c12 [I98] | 66.2% | 30.1% | 2200 nM | 
Cc1cc(C(=O)O)c2[nH]c(-c3c(F)c(F)c(-c4cccc(F)c4)c(F)c3F)nc2c1 [I126] | 97% | 94% | 8.86 nM | 
O=C(O)c1cccc2[nH]c(-c3c(F)c(F)c(-c4cc(F)cc(F)c4)c(F)c3F)nc12 [I129] | 90.8% | 70.5% | 20 nM | 
O=C(O)c1cccc2nc(-c3ccc(-c4ccc(F)cc4F)cc3F)[nH]c12 [I30] | 68.1% | 31.5% |  | 
N#Cc1ccccc1Oc1ccc(-c2ccc(-c3nc4c(C(=O)O)cccc4[nH]3)cc2)cc1 [I175] | 30% | 15% |  | 
Cc1cc(C(=O)O)c2[nH]c(-c3c(F)c(F)c(-c4ccc(O)cc4)c(F)c3F)nc2c1 [I96] | 98.4% | 102% | 16 nM | 
O=C(O)c1cccc2nc(-c3ccc(-n4ccccc4=O)cc3)[nH]c12 [I63] | 5.3% | 1.4% |  | 
Cc1cc(C(=O)O)c2[nH]c(-c3ccc(-c4ccccc4)cc3)cc2c1 [I187] | 32.1% | 15.3% |  | 
Cc1cc(C(=O)O)c2nc(-c3ccc(-c4ccccc4)s3)[nH]c2c1 [I191] | 40.7% | 17.6% |  | 
Cc1cc(C(=O)O)c2[nH]c(-c3ccc(-c4ccc(OCCN5CCCCC5)cc4)cc3)nc2c1 [I154] | 49.1% | 8.7% |  | 
Cc1cc(C(=O)O)c2nc(-c3ccc(-c4ccccc4)cc3)n(CCO)c2c1 [I93] | 78.8% | 29% | 4790 nM | 
O=C(O)c1cccc2[nH]c(-c3ccc(-c4ccc(OCc5cccnc5)cc4)cc3)nc12 [I184] | 53.3% | 25.4% |  | 

Compound | inhibition at 10 µM [1] | inhibition at 1 µM [2] | IC50 [1] | EC50 [2]
Cc1cc(C(=O)O)c2nc(-c3ccc(-c4cnn(Cc5ccccc5)c4)cc3)[nH]c2c1 [I111] | 91% | 62% | 155 nM | 
Cc1cc(C(=O)O)c2nc(-c3ccc(-c4ccc(OCc5ccncc5)cc4)cc3)[nH]c2c1 [I114] | 65% | 49% | 1730 nM | 
Cc1cc(C(=O)O)c2nc(-c3c(F)c(F)c(-c4cccc(NC(=O)C5CCCN5)c4)c(F)c3F)[nH]c2c1 (stereo not drawn) [I86] | 93.1% | 70.8% | 815 nM | 
O=C(O)c1cc(Cl)cc2[nH]c(-c3ccc(-c4ccccc4)cc3F)nc12 [I44] | 97.3% | 64.9% | 659 nM | 
Cc1cc(C(=O)O)c2nc(-c3ccc(-c4ccc(S(N)(=O)=O)cc4)cc3)[nH]c2c1 [I174] | 43% | 9% |  | 
Cc1cc(C(=O)O)c2nc(-c3ccc(-c4ccsc4)cc3)[nH]c2c1 [I23] | 77.8% | 33.9% |  | 
O=C(O)c1cccc2[nH]c(-c3ccc(-c4ccccc4)nc3)nc12 [I50] | 64.7% | 21% |  | 
Cc1cc(C(=O)O)c2nc(-c3ccc(-c4ccc(OCCN5CCCC5)cc4)cc3)[nH]c2c1 [I151] | 67.9% | 16% |  | 
O=C(O)c1cccc2nc(-c3ccc(-c4ccc(OCCO)cc4)cc3)[nH]c12 [I157] | 51.8% | 15.5% |  | 
COc1cccc(-c2ccc(-c3nc4c(C(=O)O)cccc4[nH]3)cc2)c1 [I11] | 13.7% | 9.4% |  | 
O=C(O)c1cc(F)cc2nc(-c3ccc4cc[nH]c4c3)[nH]c12 [I37] | 13.7% | 6.9% |  | 
Nc1nnc(-c2cccc3[nH]c(-c4ccc(-c5ccccc5)cc4)nc23)s1 [I108] | 53% | 11% | 15900 nM | 
Cc1cc(C(=O)O)c2[nH]c(-c3ccc(-c4ccccc4F)cc3F)nc2c1 [I25] | 94% | 82% | 172 nM | 98 nM
N#Cc1cccc2nc(-c3ccc(-c4ccccc4)cc3)[nH]c12 [I38] | 16.8% | 8% |  | 
O=C(O)c1cccc2nc(-c3c(F)c(F)c(-c4ccccc4OCc4ccccc4)c(F)c3F)[nH]c12 [I101] | 82.2% | 60.1% | 707 nM | 
Cn1cc(-c2ccc(-c3nc4cccc(C(=O)O)c4[nH]3)cc2)cn1 [I186] | 31.9% | 13.5% |  | 
O=C(O)c1cccc2[nH]c(-c3ccc(-c4ccccc4OCc4ccccc4)cc3)nc12 [I169] | 72% | 22% |  | 
Cc1cc(C(=O)O)c2c(c1)nc(-c1ccc(-c3ccc(O)cc3)cc1)n2CCO [I97] | 80% | 37.6% | 2140 nM | 
O=C(O)c1cccc2[nH]c(-c3c(F)c(F)c(Oc4ccccc4)c(F)c3F)nc12 [I188] | 41.5% | 17% |  | 
O=C(O)c1cccc2[nH]c(-c3ccc(Oc4ccccn4)cc3)nc12 [I70, 2-[4-(Pyridin-2-yloxy)-phenyl]-1H-benzoimidazole-4-carboxylic acid] | 58.6% | 14.6% |  | 
Cc1cc(C(=O)O)c2nc(-c3ccc(-c4ccccc4O)cc3)[nH]c2c1 [I167] | 82.7% | 34.5% |  | 
O=C(O)c1cc(F)cc2[nH]c(-c3c(F)cc(-c4ccccc4)cc3F)nc12 [I68] | 97.8% | 78.4% | 276 nM | 
Cc1cc(C(N)=O)c2nc(-c3c(F)c(F)c(-c4ccccc4)c(F)c3F)[nH]c2c1 [I102] | 87.9% | 64.2% | 446 nM | 
Cc1cc(C(=O)O)c2[nH]c(-c3ccc(-c4ccc(OCCC5CCNCC5)cc4)cc3)nc2c1 [I95] | 58.7% | 14.3% | 6010 nM | 
